Experimental data from patent US20230293521A1, “METHODS FOR SCREENING NOVEL CORONAVIRUS ANTIVIRALS AND METHODS OF USING ANTIVIRALS FOR THE TREATMENT OF CORONAVIRUS INFECTIONS” (priority 2020, published 2023).
Like-named read-outs stand apart in the source and are kept apart here.

Tests used:
[1] = tested on: SARS-CoV-2 replication centers; experiment: Confocal immunofluorescence of SARS-CoV-2 N and dsRNA replication centers in Calu-3 cells; format: cell-based; conditions: for distribution of SARS-CoV-2 N and dsRNA (replication center formation): Calu-3, pre-treated, MOI 3, fixed at 24 h.p.i.; for IC90: read-out: approximate IC90 (concentration used for pre-treatment)
[2] = tested on: SARS-CoV-2 genomic RNA, subgenomic N RNA and NSP14 RNA; format: cell-based; conditions: for viral RNA levels: Calu-3, both MOI 0.01 and 1; for reduction in RNA synthesis compared with reduction in viral titers: Calu-3, 24 hpi
[3] = tested on: SARS-CoV-2; experiment: microbe, parasite or virus in culture; format: cell-based; conditions: for IC50: Calu-3, pre-treated 1 hour, MOI 0.01, supernatants at 48 hpi
[4] = tested on: SARS-CoV-2; experiment: microbe, parasite or virus in culture; format: cell-based
[5] = tested on: SARS-CoV-2; experiment: Time of addition studies, impedance assay in VeroE6 cells; format: cell-based; conditions: for inhibition of SARS-CoV-2 replication, single treatment 1 hour prior to infection, compound removed prior to infection: VPS34 inhibitors at 5 µM; for inhibition of SARS-CoV-2 replication, compound added up to 4 hpi: dosing at 2 hpi or 4 hpi, compound maintained
[6] = tested on: Vero E6 cells; conditions: for cytotoxicity (rapid decrease in resistance between 1 and 20 hpi): at 50 µM and 16.67 µM
[7] = tested on: VPS34; format: cell-based; conditions: Huh7, 24 hours treatment; VPS34-IN1 2 µM, PIK-III, SAR405, Compound 19 5 µM, Orlistat 200 µM
[8] = Severe acute respiratory syndrome coronavirus 2, Calu-3

SMILES: CCCCCCCCCCCCCCC(Br)C(=O)O (stereo not drawn) [2-bromopalmitate]
- distribution of SARS-CoV-2 N and dsRNA (replication center formation) [1]: fewer but larger foci positive for both markers
- viral RNA levels [2]: reduced RNA levels
- concentrations at which infectious virus production was inhibited ([3]; Calu-3, MOI 0.01, 48 hpi): greater than 10 µM
- IC50 [3]: 23 µM

SMILES: O=C(Nc1ccccc1)Nc1ccc(-c2ccc(C(=O)[C@@H]3CCC[C@H]3C(=O)O)cc2)cc1 [A922500]
- distribution of SARS-CoV-2 N and dsRNA (replication center formation) [1]: loss of these distinct puncta and dispersion of dsRNA and SARS-CoV-2 N
- reduction in RNA synthesis compared with reduction in viral titers [2]: significantly less substantial than the reduction in viral titers
- IC50 [3]: 4.02 µM

SMILES: Cc1nc(NC(=O)N2CCC[C@H]2C(N)=O)sc1-c1ccnc(C(C)(C)C(F)(F)F)c1 [BYL719]
- decrease in viral titers [4]: 1 log
- inhibition of SARS-CoV-2 replication [4]: little inhibition was detected

SMILES: C=C1C(=O)O[C@H](CCCCCCCC)[C@H]1C(=O)O [C75, tetrahydro-4-methylene-2R-octyl-5-oxo-3S-furancarboxylic acid]
- IC50 [3]: 22.8 µM

SMILES: CCOC(=O)[C@@]1(CCCCCCOc2ccc(Cl)cc2)CO1 [Etomoxir]
- inhibition of SARS-CoV-2 ([3]; Calu-3, MOI 0.01, 48 hpi): Neither compound showed any inhibition

SMILES: CCCCCCCCCCC[C@@H](C[C@@H]1OC(=O)[C@H]1CCCCCC)OC(=O)[C@H](CC(C)C)NC=O [Orlistat]
- distribution of SARS-CoV-2 N and dsRNA (replication center formation) [1]: loss of these distinct puncta and dispersion of dsRNA and SARS-CoV-2 N
- IC90 [1, 8]: ~500 µM
- IC50 [4, 8]: 21.2 µM
- inhibition of SARS-CoV-2 replication, single treatment 1 hour prior to infection, compound removed prior to infection [5]: minimal efficacy
- inhibition of SARS-CoV-2 replication, compound added up to 4 hpi [5]: remained inhibitory
- early cytotoxic effects (1-20 hours post-treatment) [6]: neither Orlistat nor Triacsin C induced early cytotoxic effects
- effect on GFP-2xFYVE localization to endosomes [7]: did not affect GFP-2xFYVE localization
- viral RNA levels [2]: reduced RNA levels

SMILES: Nc1ncc(-c2ccnc(Nc3ccncc3)n2)c(CC2CC2)n1 [PIK-III]
- IC90 [1, 8]: ~5 µM
- IC50 [4, 8]: 0.12 µM
- inhibition of SARS-CoV-2 replication, single treatment 1 hour prior to infection, compound removed prior to infection [5]: inhibited SARS-CoV-2 replication
- inhibition of SARS-CoV-2 replication, compound added up to 4 hpi [5]: inhibition could be observed
- toxicity at the remaining concentrations [6]: no toxicity was observed
- cytotoxicity (rapid decrease in resistance between 1 and 20 hpi) ([6]; Vero E6): induced rapid cytotoxicity

SMILES: C[C@@H]1COCCN1c1cc(=O)n2c(n1)N(Cc1cncc(Cl)c1)[C@H](C(F)(F)F)CC2 [SAR405]
- IC50 [4, 8]: 0.376 µM

SMILES: CCCCCCCCCCCCCCOc1ccc(C(=O)O)o1 [TOFA, 5-(Tetradecyloxy)-2-furoic acid]
- distribution of SARS-CoV-2 N and dsRNA (replication center formation) [1]: loss of these distinct puncta and dispersion of dsRNA and SARS-CoV-2 N
- reduction in RNA synthesis compared with reduction in viral titers [2]: significantly less substantial than the reduction in viral titers
- IC50 ([3]; Severe acute respiratory syndrome coronavirus 2): 1.34 µM

SMILES: CCC/C=C/C/C=C/C=C/C=N/NN=O [Triacsin C]
- distribution of SARS-CoV-2 N and dsRNA (replication center formation) [1]: fewer but larger foci positive for both markers
- IC90 ([1]; Calu-3): ~50 µM
- IC50 [4]: 0.04 µM
- inhibition of SARS-CoV-2 replication, single treatment 1 hour prior to infection, compound removed prior to infection [5]: minimal efficacy
- inhibition of SARS-CoV-2 replication, compound added up to 4 hpi [5]: remained inhibitory
- early cytotoxic effects (1-20 hours post-treatment) ([6]; even at the highest concentrations of 50 µM and 500 µM, respectively, Vero E6): neither Orlistat nor Triacsin C induced early cytotoxic effects
- viral RNA levels [2]: reduced RNA levels

SMILES: COc1ccc(CN2CCNCC2)c(OC)c1OC [Trimetazidine]
- inhibition of SARS-CoV-2 ([3]; Calu-3, MOI 0.01, 48 hpi): Neither compound showed any inhibition

SMILES: CC(C)(O)CNc1ncc(-c2ccnc(Nc3ccncc3)n2)c(CC2CC2)n1 [VPS34-IN1]
- distribution of SARS-CoV-2 N and dsRNA (replication center formation) [1]: loss of these distinct puncta and dispersion of dsRNA and SARS-CoV-2 N
- IC90 [1, 8]: ~5 µM
- IC50 [4, 8]: 0.55 µM
- inhibition of SARS-CoV-2 replication, single treatment 1 hour prior to infection, compound removed prior to infection [5]: inhibited SARS-CoV-2 replication
- inhibition of SARS-CoV-2 replication, compound added up to 4 hpi [5]: inhibition could be observed
- toxicity at the remaining concentrations [6]: no toxicity was observed
- cytotoxicity (rapid decrease in resistance between 1 and 20 hpi) ([6]; Vero E6): induced rapid cytotoxicity
- viral RNA levels [2]: reduced RNA levels
